Where “and” joins values, the source holds several entries; their conditions need not be identical. Equal entries are not always repeated. Toxic doses and inconclusive results are not listed.
Tested on: BDF1 mice, L1210 leukemia sc, survival T/C
Assay: NCI In Vivo Anticancer Drug Screen. Data for tumor model L1210 Leukemia (subcutaneous) in B6D2F1 (BDF1) mice
Conditions: endpoint: median survival time, higher = longer survival
In short: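 Transplantable tumor-bearing mice; survival or tumor size recorded; result = T/C, treated vs vehicle control.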

N=c1ccn2c(n1)OC1C(O)C(CO)OC12 (stereo not given)
T/C (dose: 9.38 mg/kg/injection, schedule: Q03HX024 (sc), vehicle: water): 190 % of control | T/C (dose: 18.75 mg/kg/injection, schedule: Q03HX024 (sc), vehicle: water): 200 % of control | T/C (dose: 25.0 mg/kg/injection, schedule: Q01DX009 (sc), vehicle: water): 203 % of control and 170 % of control | T/C (dose: 25.0 mg/kg/injection, schedule: Q## X009 (sc), vehicle: water): 203 % of control and 172 % of control | T/C (dose: 37.5 mg/kg/injection, schedule: Q01DX008 (sc), vehicle: water): 227 % of control and 228 % of control | T/C (dose: 37.5 mg/kg/injection, schedule: Q01DX009 (sc), vehicle: water): 180 % of control | T/C (dose: 37.5 mg/kg/injection, schedule: Q03HX024 (sc), vehicle: water): 205 % of control | T/C (dose: 50.0 mg/kg/injection, schedule: Q01DX009 (sc), vehicle: water): 184 % of control [middle of 4 runs] | T/C (dose: 50.0 mg/kg/injection, schedule: Q## X009 (sc), vehicle: water): 214 % of control and 188 % of control | T/C (dose: 65.0 mg/kg/injection, schedule: Q01DX009 (sc), vehicle: water): 191 % of control | T/C (dose: 75.0 mg/kg/injection, schedule: Q01DX008 (sc), vehicle: water): 228 % of control and 233 % of control | T/C (dose: 75.0 mg/kg/injection, schedule: Q01DX009 (oral), vehicle: water): 180 % of control | T/C (dose: 75.0 mg/kg/injection, schedule: Q01DX009 (sc), vehicle: water): 203 % of control and 190 % of control | T/C (dose: 75.0 mg/kg/injection, schedule: Q03HX024 (sc), vehicle: water): 220 % of control | T/C (dose: 75.0 mg/kg/injection, schedule: Q## X009 (sc), vehicle: water): 203 % of control | T/C (dose: 100.0 mg/kg/injection, schedule: Q01DX009 (ip), vehicle: saline): 168 % of control and 172 % of control | T/C (dose: 100.0 mg/kg/injection, schedule: Q01DX009 (ip), vehicle: water): 205 % of control | T/C (dose: 100.0 mg/kg/injection, schedule: Q01DX009 (sc), vehicle: water): 206 % of control [middle of 4 runs] | T/C (dose: 100.0 mg/kg/injection, schedule: Q## X009 (sc), vehicle: water): 222 % of control and 211 % of control | T/C (dose: 108.0 mg/kg/injection, schedule: Q01DX009 (sc), vehicle: water): 183 % of control | T/C (dose: 108.0 mg/kg/injection, schedule: Q01DX014 (sc), vehicle: water): 210 % of control | T/C (dose: 108.0 mg/kg/injection, schedule: Q01DX015 (sc), vehicle: water): 194 % of control and 200 % of control | T/C (dose: 150.0 mg/kg/injection, schedule: Q01DX008 (sc), vehicle: water): 247 % of control and 250 % of control | T/C (dose: 150.0 mg/kg/injection, schedule: Q01DX009 (oral), vehicle: water): 175 % of control | T/C (dose: 150.0 mg/kg/injection, schedule: Q01DX009 (sc), vehicle: water): 233 % of control and 200 % of control | T/C (dose: 150.0 mg/kg/injection, schedule: Q03HX008 (sc), vehicle: water): 150 % of control | T/C (dose: 150.0 mg/kg/injection, schedule: Q03HX024 (sc), vehicle: water): 210 % of control | T/C (dose: 150.0 mg/kg/injection, schedule: Q## X009 (sc), vehicle: water): 233 % of control | T/C (dose: 180.0 mg/kg/injection, schedule: Q01DX009 (sc), vehicle: water): 207 % of control | T/C (dose: 180.0 mg/kg/injection, schedule: Q01DX014 (sc), vehicle: water): 253 % of control | T/C (dose: 180.0 mg/kg/injection, schedule: Q01DX015 (sc), vehicle: water): 222 % of control and 223 % of control | T/C (dose: 200.0 mg/kg/injection, schedule: Q01DX009 (ip), vehicle: saline): 180 % of control and 190 % of control | T/C (dose: 200.0 mg/kg/injection, schedule: Q01DX009 (ip), vehicle: water): 227 % of control | T/C (dose: 200.0 mg/kg/injection, schedule: Q01DX009 (sc), vehicle: water): 236 % of control [middle of 4 runs] | T/C (dose: 200.0 mg/kg/injection, schedule: Q## X009 (sc), vehicle: water): 247 % of control and 238 % of control | T/C (dose: 300.0 mg/kg/injection, schedule: Q01DX001 (sc), vehicle: water): 120 % of control | T/C (dose: 300.0 mg/kg/injection, schedule: Q01DX008 (sc), vehicle: water): 235 % of control and 238 % of control | T/C (dose: 300.0 mg/kg/injection, schedule: Q01DX009 (ip), vehicle: saline): 202 % of control and 209 % of control | T/C (dose: 300.0 mg/kg/injection, schedule: Q01DX009 (oral), vehicle: water): 195 % of control | T/C (dose: 300.0 mg/kg/injection, schedule: Q01DX009 (sc), vehicle: water): 180 % of control and 183 % of control (2×) | T/C (dose: 300.0 mg/kg/injection, schedule: Q01DX014 (sc), vehicle: water): 239 % of control | T/C (dose: 300.0 mg/kg/injection, schedule: Q01DX015 (sc), vehicle: water): 227 % of control and 231 % of control | T/C (dose: 300.0 mg/kg/injection, schedule: Q03HX008 (sc), vehicle: water): 155 % of control | T/C (dose: 300.0 mg/kg/injection, schedule: Q04DX003 (sc), vehicle: water): 150 % of control | T/C (dose: 300.0 mg/kg/injection, schedule: Q## X009 (sc), vehicle: water): 218 % of control | T/C (dose: 400.0 mg/kg/injection, schedule: Q01DX009 (ip), vehicle: water): 177 % of control | T/C (dose: 400.0 mg/kg/injection, schedule: Q01DX009 (sc), vehicle: water): 200 % of control and 209 % of control and 304 % of control | T/C (dose: 500.0 mg/kg/injection, schedule: Q01DX014 (sc), vehicle: water): 163 % of control | T/C (dose: 500.0 mg/kg/injection, schedule: Q01DX015 (sc), vehicle: water): 211 % of control and 233 % of control | T/C (dose: 600.0 mg/kg/injection, schedule: Q01DX008 (sc), vehicle: water): 172 % of control and 180 % of control | T/C (dose: 600.0 mg/kg/injection, schedule: Q01DX009 (oral), vehicle: water): 155 % of control | T/C (dose: 600.0 mg/kg/injection, schedule: Q04DX003 (sc), vehicle: water): 170 % of control | T/C (dose: 800.0 mg/kg/injection, schedule: Q01DX009 (ip), vehicle: water): 122 % of control | T/C (dose: 800.0 mg/kg/injection, schedule: Q01DX009 (sc), vehicle: water): 88 % of control | T/C (dose: 800.0 mg/kg/injection, schedule: Q## X009 (sc), vehicle: water): 88 % of control | T/C (dose: 1200.0 mg/kg/injection, schedule: Q01DX009 (oral), vehicle: water): 100 % of control | T/C (dose: 1200.0 mg/kg/injection, schedule: Q04DX003 (sc), vehicle: water): 195 % of control | T/C (dose: 1600.0 mg/kg/injection, schedule: Q01DX001 (sc), vehicle: water): 150 % of control and 157 % of control | T/C (dose: 2400.0 mg/kg/injection, schedule: Q01DX001 (sc), vehicle: water): 150 % of control | T/C (dose: 2400.0 mg/kg/injection, schedule: Q03HX008 (sc), vehicle: water): 90 % of control

From PubChem BioAssay AID250 (DTP/NCI, 2004)
